Test results as given in the NIST ThermoML archive (doi:10.1016/j.tca.2013.04.011).
Numbers after ± are expanded uncertainties.

Conditions: 101.33 kPa, Liquid; for speed of sound: Single path-length method; for mass density: Vibrating tube method

**Q.** Which speed of sound (293.15 K) does the source give for `CCn1cc[n+](C)c1.F[B-](F)(F)F` [1-ethyl-3-methylimidazolium tetrafluoroborate] here?
**A.** 1631 ± 2 m/s

**Q.** And the mass density (293.15 K)?
**A.** 1283.89 ± 1.9 kg/m3

**Q.** What about the speed of sound (298.15 K) of the same compound?
**A.** 1619.4 ± 2 m/s

**Q.** What about the mass density (298.15 K) of the same compound?
**A.** 1279.91 ± 1.9 kg/m3

**Q.** What about the speed of sound (303.15 K) of the same compound?
**A.** 1607.6 ± 2 m/s

**Q.** And the mass density (303.15 K)?
**A.** 1276.26 ± 1.9 kg/m3

**Q.** And the speed of sound (308.15 K)?
**A.** 1596.3 ± 2 m/s

**Q.** And the mass density (308.15 K)?
**A.** 1272.07 ± 1.9 kg/m3

**Q.** Which results are given for `O=C1CCCN1` [2-pyrrolidinone]?
**A.** speed of sound (293.15 K): 1650.1 ± 1.1 m/s; mass density (293.15 K): 1111.28 ± 0.41 kg/m3; speed of sound (298.15 K): 1633.9 ± 1.1 m/s; mass density (298.15 K): 1107.15 ± 0.41 kg/m3; speed of sound (303.15 K): 1617.1 ± 1.1 m/s; mass density (303.15 K): 1103.02 ± 0.41 kg/m3; speed of sound (308.15 K): 1601.8 ± 1.1 m/s; mass density (308.15 K): 1098.9 ± 0.4 kg/m3

**Q.** Which results are given for `CN1CCCC1=O` [N-methylpyrrolidone]?
**A.** speed of sound (293.15 K): 1565.5 ± 1.1 m/s; mass density (293.15 K): 1033.23 ± 0.33 kg/m3; speed of sound (298.15 K): 1546 ± 1.1 m/s; mass density (298.15 K): 1028.23 ± 0.33 kg/m3; speed of sound (303.15 K): 1527.2 ± 1.1 m/s; mass density (303.15 K): 1023.46 ± 0.32 kg/m3; speed of sound (308.15 K): 1507.4 ± 1.1 m/s; mass density (308.15 K): 1018.66 ± 0.32 kg/m3
